Reference: ChEMBL document CHEMBL5360622, “Leucettinibs, a Class of DYRK/CLK Kinase Inhibitors Inspired by the Marine Sponge Natural Product Leucettamine B” (J Med Chem, 2023)

Legend:
Settings in all cases: dose 10.0 µM
[1] = target: Glycogen synthase kinase-3 beta (Homo sapiens, UniProt P49841)
[2] = target: Casein kinase I isoform delta (Homo sapiens) (UniProt P48730)
[3] = target: Serine/threonine-protein kinase haspin (Homo sapiens) (UniProt Q8TF76)
[4] = target: BMP-2-inducible protein kinase (Homo sapiens) (UniProt Q9NSY1)
[5] = target: Casein kinase I isoform epsilon (Homo sapiens, UniProt P49674)
Chain of Casein kinase I isoform epsilon (P49674 whole entry, looked up, canonical isoform): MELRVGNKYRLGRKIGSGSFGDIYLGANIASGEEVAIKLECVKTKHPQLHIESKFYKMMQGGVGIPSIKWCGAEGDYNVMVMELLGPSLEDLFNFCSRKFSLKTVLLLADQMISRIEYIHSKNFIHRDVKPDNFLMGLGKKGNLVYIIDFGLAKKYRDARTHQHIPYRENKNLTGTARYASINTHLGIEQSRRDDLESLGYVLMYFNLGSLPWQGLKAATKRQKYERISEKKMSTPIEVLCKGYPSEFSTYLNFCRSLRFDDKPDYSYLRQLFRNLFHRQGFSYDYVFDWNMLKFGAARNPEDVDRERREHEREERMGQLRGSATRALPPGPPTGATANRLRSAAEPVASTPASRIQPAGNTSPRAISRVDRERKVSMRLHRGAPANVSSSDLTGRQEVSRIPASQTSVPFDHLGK

[6] = target: Dual specificity protein kinase CLK1 (Homo sapiens, UniProt P49759)
Chain of Dual specificity protein kinase CLK1 (P49759 whole entry, looked up): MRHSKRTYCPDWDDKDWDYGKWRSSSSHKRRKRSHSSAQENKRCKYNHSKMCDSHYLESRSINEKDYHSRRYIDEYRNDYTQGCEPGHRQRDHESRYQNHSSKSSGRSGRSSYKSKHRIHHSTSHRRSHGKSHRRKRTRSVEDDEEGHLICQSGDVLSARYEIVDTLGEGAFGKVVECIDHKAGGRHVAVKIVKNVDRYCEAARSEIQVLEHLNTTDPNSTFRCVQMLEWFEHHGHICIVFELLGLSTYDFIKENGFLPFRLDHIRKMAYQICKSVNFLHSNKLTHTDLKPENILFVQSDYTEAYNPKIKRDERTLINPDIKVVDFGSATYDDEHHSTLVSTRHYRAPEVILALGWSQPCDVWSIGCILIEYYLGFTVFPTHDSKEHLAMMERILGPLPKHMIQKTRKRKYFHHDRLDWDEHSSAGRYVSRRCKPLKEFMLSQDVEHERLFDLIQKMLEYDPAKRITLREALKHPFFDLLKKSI

[7] = target: Homeodomain-interacting protein kinase 2 (Homo sapiens) (UniProt Q9H2X6)
Chain of Homeodomain-interacting protein kinase 2 (Homo sapiens) (Q9H2X6 whole entry, looked up): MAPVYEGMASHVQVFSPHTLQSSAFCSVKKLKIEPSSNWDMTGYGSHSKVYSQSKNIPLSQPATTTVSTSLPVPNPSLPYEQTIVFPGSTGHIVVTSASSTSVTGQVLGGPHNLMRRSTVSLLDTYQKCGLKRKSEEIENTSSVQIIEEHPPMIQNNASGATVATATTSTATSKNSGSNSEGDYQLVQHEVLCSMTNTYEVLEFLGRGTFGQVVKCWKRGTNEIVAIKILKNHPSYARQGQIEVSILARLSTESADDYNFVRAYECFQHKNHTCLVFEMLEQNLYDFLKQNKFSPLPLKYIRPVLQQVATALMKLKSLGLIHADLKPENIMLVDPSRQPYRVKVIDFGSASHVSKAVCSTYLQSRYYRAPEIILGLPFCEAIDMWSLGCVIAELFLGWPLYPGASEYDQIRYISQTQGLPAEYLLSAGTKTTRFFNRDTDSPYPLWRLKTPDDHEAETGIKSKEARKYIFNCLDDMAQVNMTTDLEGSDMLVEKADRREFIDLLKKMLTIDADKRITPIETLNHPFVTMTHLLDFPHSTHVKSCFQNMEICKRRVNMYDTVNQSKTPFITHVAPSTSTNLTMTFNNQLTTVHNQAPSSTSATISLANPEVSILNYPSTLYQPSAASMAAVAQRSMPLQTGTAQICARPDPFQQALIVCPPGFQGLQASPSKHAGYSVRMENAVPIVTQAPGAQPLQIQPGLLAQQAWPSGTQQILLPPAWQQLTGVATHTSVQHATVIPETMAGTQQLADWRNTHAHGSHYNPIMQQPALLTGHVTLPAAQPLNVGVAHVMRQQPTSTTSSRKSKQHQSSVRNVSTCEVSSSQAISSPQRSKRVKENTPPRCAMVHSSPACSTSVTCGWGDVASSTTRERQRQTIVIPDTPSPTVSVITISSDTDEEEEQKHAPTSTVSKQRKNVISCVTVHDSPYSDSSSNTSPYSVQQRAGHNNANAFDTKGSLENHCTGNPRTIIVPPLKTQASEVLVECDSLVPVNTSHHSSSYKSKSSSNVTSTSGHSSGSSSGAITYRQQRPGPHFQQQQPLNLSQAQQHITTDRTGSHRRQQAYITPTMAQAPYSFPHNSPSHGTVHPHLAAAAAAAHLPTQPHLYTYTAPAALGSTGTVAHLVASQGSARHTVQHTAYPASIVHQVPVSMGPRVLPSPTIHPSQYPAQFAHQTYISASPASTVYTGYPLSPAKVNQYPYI

[8] = target: Calcium/calmodulin-dependent protein kinase kinase 2 (Homo sapiens) (UniProt Q96RR4)
[9] = target: Myotonin-protein kinase (Homo sapiens) (UniProt Q09013)
Chain of Myotonin-protein kinase (Homo sapiens) (Q09013 whole entry): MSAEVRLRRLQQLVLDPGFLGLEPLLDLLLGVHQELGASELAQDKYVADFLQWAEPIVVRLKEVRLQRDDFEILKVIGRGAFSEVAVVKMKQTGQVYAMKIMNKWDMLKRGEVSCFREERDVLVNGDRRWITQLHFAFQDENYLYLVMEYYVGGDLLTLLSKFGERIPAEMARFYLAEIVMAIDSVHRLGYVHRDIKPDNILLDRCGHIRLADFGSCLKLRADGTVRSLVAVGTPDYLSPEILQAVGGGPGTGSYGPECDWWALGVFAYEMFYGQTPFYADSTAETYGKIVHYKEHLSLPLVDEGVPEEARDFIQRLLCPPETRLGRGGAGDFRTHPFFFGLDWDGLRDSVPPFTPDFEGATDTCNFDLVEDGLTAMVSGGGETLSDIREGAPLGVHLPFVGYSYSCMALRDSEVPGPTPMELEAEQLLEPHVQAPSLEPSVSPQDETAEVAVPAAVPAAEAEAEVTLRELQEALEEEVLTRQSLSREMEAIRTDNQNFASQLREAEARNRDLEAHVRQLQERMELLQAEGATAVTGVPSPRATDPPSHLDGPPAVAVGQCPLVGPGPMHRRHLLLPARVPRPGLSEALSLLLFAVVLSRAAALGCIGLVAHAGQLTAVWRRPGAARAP

[10] = target: Serine/threonine-protein kinase pim-3 (Homo sapiens) (UniProt Q86V86)
[11] = target: Dual specificity tyrosine-phosphorylation-regulated kinase 2 (Homo sapiens) (UniProt Q92630)
Chain of Dual specificity tyrosine-phosphorylation-regulated kinase 2 (Homo sapiens) (Q92630 whole entry): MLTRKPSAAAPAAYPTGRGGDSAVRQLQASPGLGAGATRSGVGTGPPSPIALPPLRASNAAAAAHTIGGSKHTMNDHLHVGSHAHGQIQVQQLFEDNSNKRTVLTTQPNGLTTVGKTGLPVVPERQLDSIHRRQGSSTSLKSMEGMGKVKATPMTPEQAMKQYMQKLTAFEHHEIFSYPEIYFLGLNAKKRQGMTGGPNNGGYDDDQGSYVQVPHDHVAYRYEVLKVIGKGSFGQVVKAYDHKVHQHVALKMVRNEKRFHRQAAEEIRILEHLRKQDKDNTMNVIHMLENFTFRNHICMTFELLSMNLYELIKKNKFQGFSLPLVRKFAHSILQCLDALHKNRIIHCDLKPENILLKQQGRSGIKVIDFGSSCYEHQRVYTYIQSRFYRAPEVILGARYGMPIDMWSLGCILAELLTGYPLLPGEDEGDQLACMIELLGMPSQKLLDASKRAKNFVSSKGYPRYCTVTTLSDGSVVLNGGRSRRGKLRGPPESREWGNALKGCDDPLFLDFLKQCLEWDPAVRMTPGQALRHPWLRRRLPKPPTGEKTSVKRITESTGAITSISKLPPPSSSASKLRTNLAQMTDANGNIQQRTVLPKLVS

[12] = target: AP2-associated protein kinase 1 (Homo sapiens) (UniProt Q2M2I8)
[13] = target: Aurora kinase A (Homo sapiens) (UniProt O14965)
[14] = target: T1, Mitogen-activated protein kinase 15 (Homo sapiens) (UniProt Q8TD08)
T1 sequence (whole entry): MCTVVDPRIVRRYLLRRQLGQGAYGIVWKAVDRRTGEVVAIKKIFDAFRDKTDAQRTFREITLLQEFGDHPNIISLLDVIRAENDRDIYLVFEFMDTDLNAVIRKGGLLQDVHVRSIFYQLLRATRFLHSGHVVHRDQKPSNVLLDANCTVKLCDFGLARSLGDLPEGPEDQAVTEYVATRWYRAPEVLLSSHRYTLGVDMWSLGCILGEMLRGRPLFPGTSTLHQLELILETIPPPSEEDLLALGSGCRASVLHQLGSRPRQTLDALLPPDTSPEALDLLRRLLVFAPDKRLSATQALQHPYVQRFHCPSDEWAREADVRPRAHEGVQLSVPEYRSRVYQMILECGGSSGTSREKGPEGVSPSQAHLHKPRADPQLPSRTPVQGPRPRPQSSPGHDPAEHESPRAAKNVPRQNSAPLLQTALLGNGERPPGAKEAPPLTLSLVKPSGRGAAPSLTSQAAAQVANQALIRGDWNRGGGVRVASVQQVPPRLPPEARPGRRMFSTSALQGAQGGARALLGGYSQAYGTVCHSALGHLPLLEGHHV

[15] = target: Casein kinase II subunit alpha (Homo sapiens) (UniProt P68400)
[16] = target: Dual specificity protein kinase CLK3 (Homo sapiens, UniProt P49761)
Chain of Dual specificity protein kinase CLK3 (P49761 whole entry, looked up): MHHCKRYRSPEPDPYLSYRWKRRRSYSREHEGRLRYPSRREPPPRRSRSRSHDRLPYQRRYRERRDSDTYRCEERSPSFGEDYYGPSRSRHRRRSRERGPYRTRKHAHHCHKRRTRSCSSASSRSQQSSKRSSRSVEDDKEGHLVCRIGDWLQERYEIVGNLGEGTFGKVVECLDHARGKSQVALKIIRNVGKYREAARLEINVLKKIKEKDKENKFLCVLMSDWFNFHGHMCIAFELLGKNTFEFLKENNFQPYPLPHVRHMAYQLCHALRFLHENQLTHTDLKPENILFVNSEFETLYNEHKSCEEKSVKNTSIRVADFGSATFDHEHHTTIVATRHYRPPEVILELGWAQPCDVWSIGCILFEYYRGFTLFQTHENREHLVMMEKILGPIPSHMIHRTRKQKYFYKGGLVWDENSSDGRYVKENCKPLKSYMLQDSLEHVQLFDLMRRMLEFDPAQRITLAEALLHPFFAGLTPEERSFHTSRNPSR

Chain of Casein kinase I isoform delta (Homo sapiens) (P48730 whole entry, looked up, canonical isoform): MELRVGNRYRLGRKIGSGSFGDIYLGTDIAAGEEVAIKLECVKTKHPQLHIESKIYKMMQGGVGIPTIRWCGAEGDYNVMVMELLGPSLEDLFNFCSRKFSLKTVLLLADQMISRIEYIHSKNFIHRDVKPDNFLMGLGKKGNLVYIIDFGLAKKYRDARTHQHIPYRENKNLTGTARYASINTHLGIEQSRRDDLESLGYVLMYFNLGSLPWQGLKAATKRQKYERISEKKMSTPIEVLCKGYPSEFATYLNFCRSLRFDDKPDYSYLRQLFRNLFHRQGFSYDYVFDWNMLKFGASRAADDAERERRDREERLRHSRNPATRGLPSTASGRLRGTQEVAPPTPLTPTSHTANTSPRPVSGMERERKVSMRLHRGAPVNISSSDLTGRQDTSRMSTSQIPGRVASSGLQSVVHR
Chain of Glycogen synthase kinase-3 beta (P49841 whole entry, looked up, canonical isoform): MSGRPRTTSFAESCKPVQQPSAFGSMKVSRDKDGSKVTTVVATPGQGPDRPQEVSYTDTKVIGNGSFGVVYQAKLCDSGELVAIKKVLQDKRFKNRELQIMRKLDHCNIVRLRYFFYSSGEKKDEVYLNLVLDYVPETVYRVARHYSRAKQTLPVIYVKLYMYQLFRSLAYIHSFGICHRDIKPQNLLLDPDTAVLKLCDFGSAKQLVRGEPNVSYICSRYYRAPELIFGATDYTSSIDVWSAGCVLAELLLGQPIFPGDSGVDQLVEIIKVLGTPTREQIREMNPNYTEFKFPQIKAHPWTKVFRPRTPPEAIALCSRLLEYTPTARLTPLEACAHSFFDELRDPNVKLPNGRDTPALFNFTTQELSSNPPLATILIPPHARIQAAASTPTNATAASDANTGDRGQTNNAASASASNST

ΔTm [1]	ΔTm [2]	ΔTm [3]	ΔTm [4]	ΔTm [5]	ΔTm [6]	ΔTm [8]	ΔTm [9]	ΔTm [11]	ΔTm [12]	ΔTm [13]	ΔTm [15]	ΔTm [16]	SMILES	ΔTm [7]	ΔTm [10]	ΔTm [14]
6.5 °C	5 °C	7.6 °C	9.8 °C	5.5 °C	19.9 °C	10.2 °C	5.6 °C	12.4 °C	6.1 °C	7.5 °C	9.7 °C	9.7 °C	O=C1NC(NC23CC4CC(CC(C4)C2)C3)=N/C1=C\c1ccc2ncsc2c1	5.2 °C	5.5 °C	10.3 °C
–	–	–	–	–	15.7 °C	–	–	–	–	–	–	15 °C	CN1CCN(C(=O)C(C)(C)c2ccc(C(=O)Nc3cn4cc(-c5ccncc5)ccc4n3)cc2)CC1	–	–	–
–	–	–	–	–	–	–	–	–	–	–	–	–	CN[C@@H]1C[C@H]2O[C@@](C)([C@@H]1OC)n1c3ccccc3c3c4c(c5c6ccccc6n2c5c31)C(=O)NC4	4.5 °C	11.9 °C	14 °C
–	9 °C	–	–	8 °C	–	–	–	–	–	–	–	–	Nc1nccc(-c2c(-c3ccc(F)cc3)ncn2C2CCCCC2)n1	–	–	–
